# Target: T1, human subtype 5 somatostatin receptor (Homo sapiens, UniProt P35346)
# T1 construct: host or cells: CHO cell line, stably transfected; membranes
# Experiment: Binding of 125-I-labeled 11-Tyr somatostatin-14 tracer to membranes of CHO cells expressing SSTR5
# Details: CHO cell membranes, Ki calculated from IC50 by Cheng-Prussoff equation
# Protocol: A CHO cell line stably transfected with a plasmid encoding the human subtype 5 somatostatin receptor (GenBank accession number D16827) was obtained from Euroscreen. Cells were cultured and used for binding and functional assays.
# Membranes of these cells were prepared by sonication in the presence of protease inhibitors and subsequent fractionating centrifugation. The protein concentration in the membrane preparation was determined using a commercial kit (BCA kit, Pierce, USA). Membranes were stored at −80° C. until use. After thawing, membranes were diluted in assay buffer (50 mM TRIS-HCl at pH 7.4, 5 mM MgCl2 and 0.20% BSA (bovine serum albumine)) and subjected to dounce homogenization.
# For binding studies, 0.1 ml membrane suspension, corresponding to app. 6×10^−15 mol receptor, was incubated for 1 hour at room temperature with 0.05 nM ^125-I-labeled tracer (11-Tyr somatostatin-14, Perkin-Elmer) and either test compounds in varying concentrations or, for the determination of non-specific binding, 0.001 mM non-labeled somatostatin-14 (Sigma-Aldrich, Buchs, Switzerland). The incubation was stopped by filtration through GF/B glassfiber filters (Unifilter, Perkin-Elmer) and washing with ice-cold wash buffer (50 mM Tris-HCl at pH 7.4). The bound radioactivity was measured after application of a scintillation cocktail (Microscint 40, Perkin-Elmer) and expressed as disintegrations per minute (dpm).
# The receptor concentration was determined in a prior saturation experiment where a fixed, arbitrary amount of membranes was incubated with a concentration range of radio-labeled tracer. This allows estimating the total number of specific binding sites per amount of protein (i.e. Bmax), typically between 1 and 5 pmol/mg.
# The concentration of the test compound required to result in half maximal inhibition of binding of the radio-labeled tracer (IC50) was estimated from a concentration-versus-dpm graph. The binding affinity (Ki) was calculated from the IC50 by applying the Cheng-Prussoff equation for single binding sites.
# T1 sequence (P35346 whole entry): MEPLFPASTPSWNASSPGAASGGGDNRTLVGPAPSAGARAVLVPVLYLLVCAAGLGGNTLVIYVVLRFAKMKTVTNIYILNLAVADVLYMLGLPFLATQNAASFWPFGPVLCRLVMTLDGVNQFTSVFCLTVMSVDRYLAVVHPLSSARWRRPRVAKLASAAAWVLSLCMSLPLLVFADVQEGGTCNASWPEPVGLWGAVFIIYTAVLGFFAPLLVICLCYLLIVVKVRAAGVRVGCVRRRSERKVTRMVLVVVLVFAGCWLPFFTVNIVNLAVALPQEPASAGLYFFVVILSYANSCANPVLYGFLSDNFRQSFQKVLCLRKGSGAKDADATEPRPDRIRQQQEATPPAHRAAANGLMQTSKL
row,Ki [nM],Structure (SMILES)
1,19,"CCOC(=O)c1c(OCC)cc(CN2CCC(NC(=O)c3cncc(C)c3)CC2)cc1OCC [Example 35, N-[1-(3,5-Diethoxy-4-ethoxycarbonyl-benzyl)piperidin-4-yl]-5-methyl-nicotinamide]"
2,38,"CCOc1cc(CN2CCC(NC(=O)c3cncc(C)c3)CC2)ccc1Cl [Example 30, N-[1-(4-Chloro-3-ethoxy-benzyl)piperidin-4-yl]-5-methyl-nicotinamide]"

row,Structure (SMILES),Ki [nM]
1,CCOc1cc(CN2CCC(NC(=O)c3cccc(C(N)=O)c3)CC2)ccc1Cl [Example 6],126
